Measured values from US20020173491A1, “DAPD combination therapy with inosine monophosphate dehydrogenase inhibitor” (priority 2000, published 2002).
pEC50, pKi: −log10 of the molar value. Like-named read-outs stand apart in the source and are kept apart here.

Legend:
[1] = target: HIV reverse transcriptase (HIV-RT) (Human immunodeficiency virus type 1 group M subtype B, UniProt P04585); details: cited from earlier work
[2] = XTT based cytotoxicity assay, PBMC; assay type: cell-based; details: human, PBMCs
Protocol: The XTT (2,3-bis(2-methoxy-4-nitro-5-sulfoxyphenyl)-5[(phenylamino)carbonyl]-2H-tetrazolium hydroxide) assay is an in vitro colorimetric cyto-protection assay. Reduction of XTT by mitochondria dehydrogenases results in the cleavage of the tetrazolium ring of XTT, yielding orange formazan crystals, which are soluble in aqueous solution. […] Cells were added to the plat at 3×10^4/well (MTX) and 2×10^5/well (PBMC) and the plates were incubated for 5 days at 37° C. in a 5% CO2 incubator (addition of the cells to the plate diluted the compound to a final high concentration of 1 mM). At the end of the 5-day incubation, XTT was added to each well and incubated at 37° C. for 3 hours followed by the addition of acidified isopropanol. The plate was read at 450 nm in a 96 well plate reader. A dose response curve was generated using the absorption values of cells grown in the absence of compound as 100% protection.
The XTT (2,3-bis(2-methoxy-4-nitro-5-sulfophenyl)-5[(phenylamino)carbonyl]-2H-tetrazolium hydroxide) assay is an in vitro colorimetric cyto-protection assay. Reduction of XTT by mitochondria dehydrogenases results in the cleavage of the tetrazolium ring of XTT, yielding orange formazan crystals, which are soluble in aqueous solution. […] The plate was read at 450 nm in a 96 well plate reader. […]

[3] = test system: HCV; details: ribavirin alone; cited from earlier work
[4] = XTT based cytotoxicity assay, MT2; details: human, MT2 T-cell line, MT2 cells
Protocol: The XTT (2,3-bis(2-methoxy-4-nitro-5-sulfoxyphenyl)-5[(phenylamino)carbonyl]-2H-tetrazolium hydroxide) assay is an in vitro colorimetric cyto-protection assay. Reduction of XTT by mitochondria dehydrogenases results in the cleavage of the tetrazolium ring of XTT, yielding orange formazan crystals, which are soluble in aqueous solution. The resultant orange solution was read in a spectrophotometer at a wavelength of 450nm. […] Cells were added to the plat at 3×10^4/well (MTX) and 2×10^5/well (PBMC) and the plates were incubated for 5 days at 37° C. in a 5% CO2 incubator (addition of the cells to the plate diluted the compound to a final high concentration of 1 mM). At the end of the 5-day incubation, XTT was added to each well and incubated at 37° C. for 3 hours followed by the addition of acidified isopropanol. The plate was read at 450 nm in a 96 well plate reader. A dose response curve was generated using the absorption values of cells grown in the absence of compound as 100% protection.
MPA was tested for cytotoxicity on the laboratory adapted T-cell line MT2 and in PBMCs using a XTT based assay. […] The resultant orange solution is read in a spectrophotometer at a wavelength of 450nm. […] The plate was read at 450 nm in a 96 well plate reader. […]

[5] = test system: xxLAI strain of HIV-1; assay: microbe, parasite or virus in culture; assay type: cell-based; details: Human immunodeficiency virus 1, PBMC, 72 h
Protocol: In this assay, cell supernatants were incubated on microelisa wells coated with antibodies to HIV-1 p24 core antigen. Subsequently, anti-HIV-1 conjugate labeled with horseradish peroxidase was added. The labeled antibody bound to the solid phase antibody/antigen complexes previously formed. Addition of the tetramethylbenzidine substrate results in blue color formation. The color turned yellow when the reaction is stopped. The plates were then analyzed on a plate reader set at 490 nm. The absorbance is a direct measurement of the amount of HIV-1 produced in each well and a decrease in color indicates decreased viral production. […] PBMC were obtained from HIV-1 negative donors by banding on Ficoll gradients, stimulated with phytohemaglutinin (PHAP) for 48 hours prior to infection with HIV-1, and infected with virus for 4 hours at 37° C. at a MOI of 0.001. […] Plates were incubated for 3 days at 37° C. The concentration of virus in each well was determined using the NEN p24 assay. Using the absorption values of the cell controls as 100% protection and drug free, virus infected cells as 0% protection, a dose response curve is generated by plotting percent protection on the Y axis and drug concentration on the X axis. From this curve, EC50 values were determined.
Compound dilutions and assay conditions were as described above.
MPA was also tested for activity against the xxLAI strain of HIV-1 in PBMCs using a p24 based Elisa assay. In this assay, cell supernatants are incubated on microelisa wells coated with antibodies to HIV-1 p24 core antigen. Subsequently, anti-HIV-1 conjugate labeled with horse radish peroxidase is added. The labeled antibody binds to the solid phase antibody/antigen complexes previously formed. Addition of the tetramethylbenzidine substrate results in blue color formation. The color turns yellow when the reaction is stopped. The plates are then analyzed on a plate reader set at 490 nm. The absorbance is a direct measurement of the amount of HIV-1 produced in each well and a decrease in color indicates decreased viral production. Dilutions of MPA were made in cell culture media in a 96 well plate, the highest concentration of MPA tested was 1 μM. PBMC were obtained from HIV-1 negative donors by banding on Ficoll gradients, stimulated with phytohemaglutinin (PHAP) for 48 hours prior to infection with HIV-1, and infected with virus for 4 hours at 37° C. at a MOI of 0.001. Infected cells were seeded into 96 well plates containing 4-fold serial dilutions of MPA. Plates were incubated for 3 days at 37° C. The concentration of virus in each well was determined using the NEN p24 assay. Using the absorption values of the cell controls as 100% protection and drug free, virus infected cells as 0% protection, a dose response curve is generated by plotting % protection on the Y axis and drug concentration on the X axis. From this curve EC50 values were determined.
Compound dilutions and assay conditions were as described above. The concentrations of MPA used were 1, 0.5, 0.25, 0.1, and 0.01 μM.

[6] = test system: xxLAI strain of HIV-1; assay: microbe, parasite or virus in culture; assay type: cell-based; details: compound alone, any of the concentrations tested (RBV up to 100 μM, MPA up to 1 μM)
Protocol: Triplicate samples of compound were tested. MT2 cells were infected with xxLAI at a multiplicity of infection (MOI) of 0.03 for 3 hours at 37° C. in 5% CO2. The infected cells were plated at 3.0×10^4/well into a 96 well plated containing drug dilutions and incubated for 5 days at 37° C. in CO2. […] This method has been modified into a susceptibility assay and has been used in a variety of in vitro antiviral tests and is readily adaptable to any system with a lytic virus (Weislow, O. S., et. al. 1989). Using the absorption values of the cell controls as 100% protection and no drug, virus infected cells as 0% protection, a dose response curve is generated by plotting % protection on the Y axis and drug concentration on the X axis. From this curve EC50 values were determined.
Assays were performed in the MT2 cell line as described above in the XXT sensitivity assay section.
MPA was tested for activity against the xxLAI strain of HIV-1 in the laboratory adapted cell line MT2. Dilutions of MPA were made in cell culture media in a 96 well plate; the highest concentration tested was 1 μM. Triplicate samples of compound were tested. MT2 cells were infected with xxLAI at a multiplicity of infection (MOI) of 0.03 for 3 hours at 37° C. in 5% CO2. The infected cells were plated at 3.0×10^4/well into a 96 well plated containing drug dilutions and incubated for 5 days at 37° C. in CO2. The antiviral activity of MPA was determined using the XTT assay described above. This method has been modified into a susceptibility assay and has been used in a variety of in vitro antiviral tests and is readily adaptable to any system with a lytic virus (Weislow, O. S., et. al. 1989). Using the absorption values of the cell controls as 100% protection and no drug, virus infected cells as 0% protection, a dose response curve is generated by plotting % protection on the Y axis and drug concentration on the X axis. From this curve EC50 values were determined.
The concentrations of MPA used were 1, 0.5, 0.25, 0.1, and 0.01 μM. Assays were performed in the MT2 cell line as described in section 3.1.

[7] = read-out: EC50, HIV-1 replication in PBMCs, compound alone, p24, 3 days

| SMILES | pKi [1] | CC50 at 5 days [2] | effect on serum levels of HCV-RNA [3] | patients with serum amino transferase levels reduced to normal [3] | CC50 at 5 days [4] | pEC50 [5, 7] | activity against HIV-1 in MT2 cells [6] | pEC50 ([5]; read-out: median EC50, HIV-1 replication in PBMCs, compound alone, p24, 3 days) |
| --- | --- | --- | --- | --- | --- | --- | --- | --- |
| Nc1nc2c(ncn2C2COC(COP(=O)(O)OP(=O)(O)OP(=O)(O)O)O2)c(=O)[nH]1 (stereo not drawn) [DXG-TP] | 7.72 |  |  |  |  |  |  |  |
| NC(=O)c1ncn([C@@H]2O[C@H](CO)[C@@H](O)[C@H]2O)n1 [RBV, 1-β-D-ribofuranosyl-1,2,4-triazole-3-carboxamide] |  | > 1000 µM | does not lower | 40% | > 1000 µM | 4.69 | not active |  |
| COc1c(C)c2c(c(O)c1C/C=C(\C)CCC(=O)O)C(=O)OC2 [MPA, 6-(4-hydroxy-6-methoxy-7-methyl-3-oxo-5-phthalanyl)-4-methyl-4-hexanoic acid] |  | 4.5 µM |  |  | 5.7 µM | 7.02 | not active | 7.02 |
